Key:
Assay type in all cases: cell-based
Trichophyton rubrum = assay: Antifungal activity in vitro, resazurin growth inhibition: Trichophyton rubrum (B68183)
Protocol: (§1) The standard susceptibility screen is performed in 96-well plates (U-bottom, Greiner Bio-One). Serial dilutions (2-fold or 4-fold) of 20 mM compound stock solutions are made in 100% DMSO, followed by an intermediate dilution step in water. These serial dilutions (10 μl) are then spotted onto test-plates that can be stored in the dark at 4° C. for a maximum period of 2 weeks. An adequate broad dose-range is included with 64 μM as the highest in-test concentration. The culture medium RPMI-1640 is supplemented with L-glutamine, 2% glucose and buffered with 3-(N-morpholino)-propanesulfonic acid (MOPS) at pH 7.0±0.1.
(§2) The different fungal species/isolates (Table 3a) are cryopreserved and 1/1000 diluted in medium just prior to use. A standard inoculum of 200 μl containing 10^3 colony-forming unit (cfu) is then added to each well. A positive control (100% growth=fungal culture without antifungal) and a negative control (0% growth ═RPMI-MOPS medium) are included on each plate. Optimal incubation time and temperature are dependent on the fungal species and vary from 24 h for yeasts (37° C.) to one week or more for dermatophytes (27° C.). Inhibition of fungal growth is measured after adding 10 μl of 0.005% (w/v) resazurin (Sigma Aldrich) to each well, based on the principle that living cells convert the non-fluorescent blue resazurin into the pink and fluorescent resorufin, allowing fluorimetric reading (λex 550 nm and λem 590 nm) after an additional incubation period (‘resa’ time mentioned in Table 3a).

Aspergillus fumigatus = assay: Antifungal activity in vitro, resazurin growth inhibition: Aspergillus fumigatus (B42928)
Protocol: as §1, §2

Microsporum canis = assay: Antifungal activity in vitro, resazurin growth inhibition: Microsporum canis (B68128)
Protocol: as §1, §2

Candida parapsilosis = assay: Antifungal activity in vitro, resazurin growth inhibition: Candida parapsilosis (B66126)
Protocol: as §1, §2

Cryptococcus neoformans = assay: Antifungal activity in vitro, resazurin growth inhibition: Cryptococcus neoformans (B66663)
Protocol: as §1, §2

[1] = test system: Trichophyton mentagrophytes; assay: Antifungal activity in vitro, resazurin growth inhibition: Trichophyton mentagrophytes (B70554)
Protocol: as §1, §2

Sporothrix schenkii = assay: Antifungal activity in vitro, resazurin growth inhibition: Sporothrix schenkii (B62482)
Protocol: as §1, §2

Inf. G: Trichophyton mentagrophytes B70554, pIC50 [1]	Structure (SMILES)	Inf. C: Trichophyton rubrum B68183, pIC50 (Trichophyton rubrum)	Inf. E: Aspergillus fumigatus B42928, pIC50 (Aspergillus fumigatus)	Inf. B: Microsporum canis B68128, pIC50 (Microsporum canis)	Inf. D: Candida parapsilosis B66126, pIC50 (Candida parapsilosis)	Inf. F: Cryptococcus neoformans B66663, pIC50 (Cryptococcus neoformans)	Inf. A: Sporothrix schenkii B62482, pIC50 (Sporothrix schenkii)
5.48	CCc1nc(C2=NCc3c(Cl)cc(Cl)cc3-n3cccc32)cs1 [Compound 65]	5.19	<4.19	4.72	<4.19	5.06	4.56
<4.19	Cc1ccc2oc(C3=NCc4ccc(Cl)cc4-n4cccc43)cc2c1 [Compound 135]	5.91	<4.19	4.41	<4.19	4.54	<4.19
5.23	Fc1cccc2c1CN=C(c1cnc(Cl)c(Cl)c1)c1cccn1-2 [Compound 80]	5.79	5.59	5.09	<4.19	<4.19	5.42
<4.19	COc1cccc2cc(C3=NCc4cccc(Cl)c4-n4cccc43)oc12 [Compound 143]	6.11	<4.19	<4.19	<4.19	5.20	5.49
<4.19	Fc1cccc2c1CN=C(c1ccc3occ(Cl)c3c1)c1cccn1-2 [Compound 153]	<4.19	<4.19	<4.19	5.00	5.16	<4.19
4.26	Clc1ccc2c(c1)-n1cccc1C(c1ccc3scc(Cl)c3c1)=NC2 [Compound 178]	4.37	5.93	<4.19	<4.19	6.49	<4.19
<4.19	Clc1ccc(Cl)c2c1CN=C(c1ccc3ccoc3c1)c1cccn1-2 [Compound 151]	4.95	<4.19	<4.19	<4.19	<4.19	<4.19
5.43	Cn1nc2ccc(C3=NCc4c(Cl)cccc4-n4cccc43)cc2n1 [Compound 108]	5.99	<4.49	4.98	<4.49	<4.49	<4.49
<4	Clc1cccc2c1CN=C(c1ccc3nc[nH]c3c1)c1cccn1-2 [Compound 205]	<4	<4	–	<4	<4	<4

The remaining lines, values behind:

Structure (SMILES)	Inf. G: Trichophyton mentagrophytes B70554, pIC50 [1]	Inf. C: Trichophyton rubrum B68183, pIC50 (Trichophyton rubrum)	Inf. E: Aspergillus fumigatus B42928, pIC50 (Aspergillus fumigatus)	Inf. B: Microsporum canis B68128, pIC50 (Microsporum canis)	Inf. D: Candida parapsilosis B66126, pIC50 (Candida parapsilosis)	Inf. F: Cryptococcus neoformans B66663, pIC50 (Cryptococcus neoformans)	Inf. A: Sporothrix schenkii B62482, pIC50 (Sporothrix schenkii)
Cc1cccc2oc(C3NCc4ccc(Cl)cc4-n4cccc43)cc12.Cl (racemic) [Compound 37]	4.41	5.31	<4.19	4.38	<4.19	5.39	<4.19
Cl.Clc1cccc2c1CNC(c1cc3ccccc3s1)c1cccn1-2 (racemic) [Compound 53]	5.70	6.10	5.40	5.70	<4.19	5.70	4.92
COc1ccc2oc(C3NCc4ccc(Cl)cc4-n4cccc43)cc2c1.Cl (racemic) [Compound 45]	<4.19	5.09	<4.19	5.32	<4.19	4.62	4.80
Cc1ccc(Cl)c2c1-n1cccc1C(c1cnc(C(F)(F)F)nc1)NC2.Cl (racemic) [Compound 27]	<4.90	<4.90	<4.90	<4.90	<4.90	<4.90	<4.90
COc1cccc2cc(C3NCc4c(Cl)cc(Cl)cc4-n4cccc43)oc12.Cl (racemic) [Compound 43]	<4.19	4.30	<4.19	4.52	<4.19	<4.19	<4.19
Cc1ccc2cc(C3NCc4ccccc4-n4cccc43)oc2c1.Cl (racemic) [Compound 38]	5.22	5.22	4.41	5.15	<4.19	<4.19	4.40
Br.CCn1ccc(C2NCc3c(Cl)cccc3-n3cccc32)n1 (racemic) [Compound 10]	<4.19	<4.19	<4.19	4.25	<4.19	<4.19	<4.19
Br.Clc1cccc2c1CNC(c1ccncc1)c1cccn1-2 (racemic) [Compound 21]	–	5.52	<4.19	5.04	<4.19	4.66	4.70
Br.Clc1ccc2c(c1)CNC(c1ccncc1)c1cccn1-2 (racemic) [Compound 22]	–	5.10	<4.19	5.22	<4.19	4.32	<4.19
